# Data: US8283353B2, “Fused ring compound and use thereof” (Takeda Pharmaceutical Company Limited, priority 2009, dated 2012)
# What was measured:
# human AT1 receptor = biological target: T1, human AT1 receptor (Homo sapiens, UniProt P30556); assay: AT1 receptor antagonistic activity: [125I]-angiotensin II binding assay on human AT1 receptor-expressing CHO-K1 cellular membrane fraction; conditions: 22.5 pM [125I]-angiotensin II, 1 hr room temperature
# T1 construct: expressed in transfected cells; membrane fraction
# T1 sequence (P30556 1-359): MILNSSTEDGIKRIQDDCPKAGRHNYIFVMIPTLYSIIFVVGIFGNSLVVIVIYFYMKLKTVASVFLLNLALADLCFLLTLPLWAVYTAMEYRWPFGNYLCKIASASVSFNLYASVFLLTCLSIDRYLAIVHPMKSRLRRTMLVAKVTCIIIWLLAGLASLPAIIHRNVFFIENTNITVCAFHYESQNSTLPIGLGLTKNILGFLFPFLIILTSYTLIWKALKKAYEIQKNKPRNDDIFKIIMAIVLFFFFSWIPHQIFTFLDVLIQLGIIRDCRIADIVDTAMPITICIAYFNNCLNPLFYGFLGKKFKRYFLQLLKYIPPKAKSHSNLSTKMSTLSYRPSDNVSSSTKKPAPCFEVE
# In short: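 Competition binding used radiolabelled angiotensin II on stably transfected CHO-K1 membrane fractions in Tris pH 7.4/MgCl2 buffer, optionally containing 0.3 mg/mL fatty acid-free BSA, 1 hr at room temperature. Filtration onto GF/C separated bound tracer, and nonspecific binding was measured with candesartan.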
# human PPARγ = biological target: T2, human PPARγ (Homo sapiens, UniProt P37231); assay: PPARγ agonistic activity: luciferase reporter assay in PPARγ:RXRα:4ERPP/CHO-K1 cells; type: cell-based; conditions: CHO-K1, test compound 10^−6 M; luciferase activity of control compound X (1 μM) = 100%, non-administration group = 0%
# T2 construct: expressed in transfected cells
# T2 sequence (P37231 1-477 isoform P37231-2): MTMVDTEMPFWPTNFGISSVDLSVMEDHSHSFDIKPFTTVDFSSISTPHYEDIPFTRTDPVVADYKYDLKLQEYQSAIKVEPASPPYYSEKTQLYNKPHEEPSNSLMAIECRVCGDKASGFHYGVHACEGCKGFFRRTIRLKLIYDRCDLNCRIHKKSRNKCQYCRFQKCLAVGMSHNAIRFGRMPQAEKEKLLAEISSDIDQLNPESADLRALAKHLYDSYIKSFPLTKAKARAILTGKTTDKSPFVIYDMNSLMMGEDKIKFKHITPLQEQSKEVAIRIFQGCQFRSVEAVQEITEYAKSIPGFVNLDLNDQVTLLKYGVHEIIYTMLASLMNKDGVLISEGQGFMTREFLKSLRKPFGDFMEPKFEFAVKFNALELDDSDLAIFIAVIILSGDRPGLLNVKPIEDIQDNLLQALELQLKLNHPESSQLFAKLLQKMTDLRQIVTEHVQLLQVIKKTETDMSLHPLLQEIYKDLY
# T2 sequence (P19793 1-462 partner): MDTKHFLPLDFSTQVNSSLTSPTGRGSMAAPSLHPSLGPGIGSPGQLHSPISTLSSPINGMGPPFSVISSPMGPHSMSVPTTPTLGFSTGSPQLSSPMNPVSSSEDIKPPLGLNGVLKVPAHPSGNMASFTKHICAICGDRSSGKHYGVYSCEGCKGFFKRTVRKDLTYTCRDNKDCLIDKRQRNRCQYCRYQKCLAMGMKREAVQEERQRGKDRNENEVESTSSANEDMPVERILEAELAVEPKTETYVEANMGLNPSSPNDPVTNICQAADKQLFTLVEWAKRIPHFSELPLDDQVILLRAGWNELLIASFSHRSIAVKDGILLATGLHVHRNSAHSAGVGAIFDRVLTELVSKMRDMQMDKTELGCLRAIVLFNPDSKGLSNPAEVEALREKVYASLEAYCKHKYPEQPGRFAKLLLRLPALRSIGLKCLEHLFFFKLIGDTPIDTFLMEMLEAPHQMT
# Source text: A CHO-K1 cell cultured in a 150 cm^2 cell culture flask [manufactured by Corning Costar Corporation, USA] comprising Ham's F12 medium [manufactured by INVITROGEN, USA] supplemented with 10% fetal bovine serum [manufactured by INVITROGEN, USA] was taken off by treating with 0.5 g/L trypsin-0.2 g/L EDTA (ethylenediamine tetraacetate) [manufactured by Life Technologies, Inc., USA], and then the cell was washed with PBS (Phosphate-buffered saline) [manufactured by INVITROGEN, USA], centrifuged (1000 rpm, 5 minutes) and suspended in PBS. Subsequently, DNA was introduced into the cell under the conditions shown below using GENE PULSER [manufactured by Bio-Rad Laboratories, USA].
# Namely, to a cuvette having a 0.4 cm gap were added 8×10^6 cells and 10 μg of plasmid pVgRXR2-hPPARγ obtained in the above-mentioned (4) and 10 μg of reporter plasmid pGL3-4ERPP-TK neo obtained in the above-mentioned (3), which was subjected to electroporation at the voltage of 0.25 kV under the capacitance of […] Subsequently, the cell was transferred into a F12 medium comprising 10% fetal bovine serum and cultured for 24 hours, and then the cell was taken off again and centrifuged. Then, the pellet was suspended in Ham's F12 medium comprising 10% fetal bovine serum supplemented with 500 μg/ml of Geneticin [manufactured by INVITROGEN, USA] and 250 μg/ml of Zeocin [manufactured by INVITROGEN, USA]. The obtained suspension was diluted to the density of 10^4 cells/ml and inoculated in a 96-well plate [manufactured by Corning Costar Corporation, USA], which was cultured in a CO2 gas incubator at 37° C., whereby obtaining a Geneticin- and Zeocin-resistant transformant.
# Subsequently, after the transformed cell line thus obtained was cultured in a 24-well plate [manufactured by Corning Costar Corporation, USA], a cell line in which expression of the luciferase was induced, i.e., PPARγ:RXRα:4ERPP/CHO-K1 cell was selected by the addition of 10 μM pioglitazone hydrochloride.
# PPARγ:RXRα:4ERPP/CHO-K1 cells obtained in the above-mentioned (5) were cultured in F12 medium [manufactured by INVITROGEN, USA] containing 10% fetal bovine serum [manufactured by MOREGATE, Australia], seeded in a 96 well half-area white plate [manufactured by Corning Coster Corporation, USA] at 5×10^3 cells/well, and cultured in a CO2 incubator at 37° C. overnight.
# Then, the medium was removed from the 96 well half-area white plate, hamF12 medium containing 0.1% fatty acid-free bovine serum albumin (BSA) (45 μl) and a test compound (5 μl) were added, and the mixture was cultured in the CO2 incubator at 37° C. for 1 day. After removing the medium, Picagene 7.5 [manufactured by Dai Nippon Inki, Japan] (20 μl) diluted 2-fold with HBSS (HANKS' BALANCED SALT SOLUTION) [manufactured by BIO […], USA] was added, and the mixture was stirred. Using 1420 ARVO Multilabel Counter [manufactured by PerkinElmer, USA], luciferase activity was measured. The percentage (%) was calculated from the luciferase activity of the test compound when the luciferase activity of the control compound (compound X: 5-[3-(4-{[2-(2-furyl)-5-methyl-1,3-oxazol-4-yl]methoxy}-3-methoxyphenyl)propyl]-1,3-oxazolidine-2,4-dione) (1 μM) was taken as 100% and the luciferase activity of the test compound non-administration group was taken as 0%.
SMILES,IC50 (human AT1 receptor) [nM],activation at 1 µM (human PPARγ) [%]
"CCCc1c(Cc2ccc(-c3ccccc3-c3noc(=O)[nH]3)c(C)c2)c(=O)n([C@H]2CC[C@H](OCC(C)(C)O)CC2)c2nc(C)nn12 [Example 155, 4-[trans-4-(2-hydroxy-2-methylpropoxy)cyclohexyl]-2-methyl-6-{[2-methyl-2′-(5-oxo-4,5-dihydro-1,2,4-oxadiazol-3-yl)biphenyl-4-yl]methyl}-7-propyl[1,2,4]triazolo[1,5-a]pyrimidin-5(4H)-one]",1.6,18
"CCCCc1c(Cc2ccc(-c3ccccc3-c3noc(=O)[nH]3)cc2)c(=O)n([C@H]2CC[C@H](OCC(C)O)CC2)c2ccnn12 (relative stereo) [Example 436, 7-butyl-4-[trans-4-(2-hydroxypropoxy)cyclohexyl]-6-{[2′-(5-oxo-4,5-dihydro-1,2,4-oxadiazol-3-yl)biphenyl-4-yl]methyl}pyrazolo[1,5-a]pyrimidin-5(4H)-one]",1.8,32
"CCCc1c(C(C)c2ccc(-c3ccccc3-c3noc(=O)[nH]3)cc2)c(=O)n([C@H]2CC[C@H](OCC(C)(C)O)CC2)c2ncnn12 (stereo partly drawn) [Example 131, 4-[trans-4-(2-hydroxy-2-methylpropoxy)cyclohexyl]-6-{1-[2′-(5-oxo-4,5-dihydro-1,2,4-oxadiazol-3-yl)biphenyl-4-yl]ethyl}-7-propyl[1,2,4]triazolo[1,5-a]pyrimidin-5(4H)-one]",2.9,15
"CCCc1c(Cc2ccc(-c3ccccc3-c3noc(=O)[nH]3)cc2)c(=O)n(CC(C)(C)COC)c2nc(C)nn12 [Example 73, 4-(3-methoxy-2,2-dimethylpropyl)-2-methyl-6-{[2′-(5-oxo-4,5-dihydro-1,2,4-oxadiazol-3-yl)biphenyl-4-yl]methyl}-7-propyl[1,2,4]triazolo[1,5-a]pyrimidin-5(4H)-one]",1.5,20
"CCCc1c(Cc2ccc(-c3ccccc3-c3noc(=O)[nH]3)cc2)c(=O)n([C@H]2CC[C@H](OCC(O)C(F)(F)F)CC2)c2ccnn12 (relative stereo) [Example 428, 6-{[2′-(5-oxo-4,5-dihydro-1,2,4-oxadiazol-3-yl)biphenyl-4-yl]methyl}-7-propyl-4-[trans-4-(3,3,3-trifluoro-2-hydroxypropoxy)cyclohexyl]pyrazolo[1,5-a]pyrimidin-5(4H)-one]",1.9,27
"CCCc1c(Cc2ccc(-c3ccccc3-c3noc(=O)[nH]3)cc2)c(=O)n([C@H]2CC[C@H](OC(C)C(C)(C)O)CC2)c2ncnn12 (stereo partly drawn) [Example 300, 4-[trans-4-(2-hydroxy-1,2-dimethylpropoxy)cyclohexyl]-6-{[2′-(5-oxo-4,5-dihydro-1,2,4-oxadiazol-3-yl)biphenyl-4-yl]methyl}-7-propyl[1,2,4]triazolo[1,5-a]pyrimidin-5(4H)-one]",1.8,16
"CCCc1c(Cc2ccc(-c3ccccc3-c3noc(=O)[nH]3)cc2)c(=O)n([C@H]2CC[C@H](OCC(O)(CC)CC)CC2)c2ncnn12 [Example 225, 4-[trans-4-(2-ethyl-2-hydroxybutoxy)cyclohexyl]-6-{[2′-(5-oxo-4,5-dihydro-1,2,4-oxadiazol-3-yl)biphenyl-4-yl]methyl}-7-propyl[1,2,4]triazolo[1,5-a]pyrimidin-5(4H)-one]",2.3,21
"CCCc1c(Cc2ccc(-c3ccccc3-c3noc(=O)[nH]3)cc2F)c(=O)n([C@H]2CC[C@H](O)CC2)c2ncnn12 [Example 167, 6-{[3-fluoro-2′-(5-oxo-4,5-dihydro-1,2,4-oxadiazol-3-yl)biphenyl-4-yl]methyl}-4-(trans-4-hydroxycyclohexyl)-7-propyl[1,2,4]triazolo[1,5-a]pyrimidin-5(4H)-one]",0.8,43
"CCCc1c(Cc2ccc(-c3ccccc3-c3noc(=O)[nH]3)cc2F)c(=O)n([C@H]2CC[C@H](OC(C)C3(O)CCC3)CC2)c2ncnn12 (stereo partly drawn) [Example 371, 6-{[3-fluoro-2′-(5-oxo-4,5-dihydro-1,2,4-oxadiazol-3-yl)biphenyl-4-yl]methyl}-4-{trans-4-[1-(1-hydroxycyclobutyl)ethoxy]cyclohexyl}-7-propyl[1,2,4]triazolo[1,5-a]pyrimidin-5(4H)-one]",2.1,33
"CCCc1c(Cc2ccc(-c3ccccc3-c3noc(=O)[nH]3)cc2)c(=O)n(C2CCC(=NOC)CC2)c2ncnn12 (stereo not drawn) [Example 188, 4-[4-(methoxyimino)cyclohexyl]-6-{[2′-(5-oxo-4,5-dihydro-1,2,4-oxadiazol-3-yl)biphenyl-4-yl]methyl}-7-propyl[1,2,4]triazolo[1,5-a]pyrimidin-5(4H)-one]",1.9,25
"CCCc1c(Cc2ccc(-c3ccccc3-c3noc(=O)[nH]3)cc2)c(=O)n([C@H]2CC[C@H](OCC(C)O)CC2)c2ncnn12 (stereo partly drawn) [Example 379, 4-[trans-4-(2-hydroxypropoxy)cyclohexyl]-6-{[2′-(5-oxo-4,5-dihydro-1,2,4-oxadiazol-3-yl)biphenyl-4-yl]methyl}-7-propyl[1,2,4]triazolo[1,5-a]pyrimidin-5(4H)-one]",2.2,34
"CCCc1c(Cc2ccc(-c3ccccc3-c3noc(=O)[nH]3)cc2)c(=O)n([C@H]2CC[C@H](OCC(C)(O)CC)CC2)c2ncnn12 (stereo partly drawn) [Example 345, 4-[trans-4-(2-hydroxy-2-methylbutoxy)cyclohexyl]-6-{[2′-(5-oxo-4,5-dihydro-1,2,4-oxadiazol-3-yl)biphenyl-4-yl]methyl}-7-propyl[1,2,4]triazolo[1,5-a]pyrimidin-5(4H)-one]",2.1,18
